Consider 16 compounds from patent US11834467B2, “Substituted indazoles as hematopoietic progenitor kinase 1 (HPK1) inhibitors” (1ST Biotherapeutics, Inc., priority 2020, dated 2023).

Where two headings read alike, the source gives them in different places.

The assay deals with human peripheral blood pan T cells. As to the kind of experiment: IFNγ and IL-2 secretion analysis of human peripheral pan T cells. It counts as cell-based. The note with it: CD3/CD28 stimulation, 100 nM Prostaglandin E2, 24 hr. The method, then: Human peripheral blood pan T cells were purchased from STEMCELL™ Technologies Inc. Human peripheral blood pan T cells were thawed and suspended in DMEM media (10% FBS and 100 Penicillin/Streptomycin). 8×10^4 T cells were seeded in 96-well plate and incubated with various concentration of compounds and 100 nM Prostaglandin E2 for 1 hr. T cells were stimulated with Dynabeads Human T-Activator CD3/CD28 (Life Technologies) at a 1:3 cells:beads ratio. […] Data were analyzed with an MESO Quickplex SQ120 (Mesoscale Discovery).

Where [1] appears, read: Homo sapiens, T-cell, 24 h, IFNγ secretion, read-out: IFNγ (EC50).
Where [2] appears, read: Homo sapiens, T-cell, 24 h, IL-2 secretion, read-out: IL-2 (EC50).

The EC50 is the concentration needed to bring the measured effect to its halfway point. With `CCc1c(F)cc2[nH]ncc2c1-c1ccc2nc(NC(=O)[C@@H]3C[C@@H]3F)cn2n1` [Example 4], the EC50 reads like this: under setting [1], under 200 nM; under setting [2], 200 to 1000 nM.
`CCc1c(F)c(N(C)C)c2[nH]ncc2c1-c1ccc2nc(NC(=O)[C@@H]3C[C@@H]3F)cn2n1` [Example 7]: the EC50 is, setting by setting: under setting [1], 200 to 1000 nM; under setting [2], 200 to 1000 nM.
As for `CCOc1c(F)c(CC)c(-c2ccc3nc(NC(=O)[C@@H]4C[C@@H]4F)cn3n2)c2cn[nH]c12` [Example 13], the EC50 is 200 to 1000 nM under setting [1] and 200 to 1000 nM under setting [2].
As for `CCc1c(F)c(N(C)C)c2[nH]ncc2c1-c1cn2cc(NC(=O)[C@@H]3C[C@@H]3F)nc2cn1` [Example 26], the EC50 is, setting by setting: under setting [1], under 200 nM; under setting [2], 200 to 1000 nM.
As for `CSc1c(F)c(SC)c2[nH]ncc2c1-c1cn2cc(NC(=O)[C@@H]3C[C@@H]3F)nc2cn1` [Example 27], under setting [1], the EC50 was under 200 nM.
Take `CN(C)c1c(F)c(Cl)c(-c2cn3cc(NC(=O)[C@@H]4C[C@@H]4F)nc3cn2)c2cn[nH]c12` [Example 33]: the EC50 reads like this: under setting [1], under 200 nM; under setting [2], 200 to 1000 nM.
On to `CCOc1c(F)c(Cl)c(-c2cn3cc(NC(=O)[C@@H]4C[C@@H]4F)nc3cn2)c2cn[nH]c12` [Example 34], for which the EC50 under setting [1] was under 200 nM and the EC50 under setting [2] lay in the range of 200 to 1000 nM.
On to `CSc1c(F)c(Cl)c(-c2cn3cc(NC(=O)[C@@H]4C[C@@H]4F)nc3cn2)c2cn[nH]c12` [Example 38], for which the EC50 is 200 to 1000 nM under setting [1]; 200 to 1000 nM under setting [2]; under 200 nM (IFNγ secretion, read-out: IFNγ (EC50)).
Regarding `CN(C)c1c(F)c(C(F)(F)F)c(-c2cn3cc(NC(=O)[C@@H]4C[C@@H]4F)nc3cn2)c2cn[nH]c12` [Example 40], the EC50 is under 200 nM under setting [1] and 200 to 1000 nM under setting [2].
`CCN(C)c1c(F)c(Cl)c(-c2cn3cc(NC(=O)[C@@H]4C[C@@H]4F)nc3cn2)c2cn[nH]c12` [Example 41]: the EC50 is under 200 nM under setting [1] and 200 to 1000 nM under setting [2].
As for `CCN(C)c1c(F)c(C(F)(F)F)c(-c2cn3cc(NC(=O)[C@@H]4C[C@@H]4F)nc3cn2)c2cn[nH]c12` [Example 42], the EC50 is under 200 nM under setting [1] and 200 to 1000 nM under setting [2].
With `CCOc1c(F)c(CC)c(-c2cn3cc(NC(=O)[C@@H]4C[C@@H]4F)nc3cn2)c2cn[nH]c12` [Example 44], the EC50 was under 200 nM under setting [1] and 200 to 1000 nM under setting [2].
Turning to `CN(c1c(F)c(Cl)c(-c2cn3cc(NC(=O)[C@@H]4C[C@@H]4F)nc3cn2)c2cn[nH]c12)C1CC1` [Example 58], the EC50 was under 200 nM under setting [1] and 200 to 1000 nM under setting [2].
On the same counts, the results for `CC(C)Nc1c(F)c(Cl)c(-c2cn3cc(NC(=O)[C@@H]4C[C@@H]4F)nc3cn2)c2cn[nH]c12` [Example 61, (1S,2S)—N-(6-(5-chloro-6-fluoro-7-(isopropylamino)-1H-indazol-4-yl)imidazo[1,2-a]pyrazin-2-yl)-2-fluorocyclopropane-1-carboxamide] are under 200 nM and 200 to 1000 nM.
On the same counts, the results for `CC(C)N(C)c1c(F)c(Cl)c(-c2cn3cc(NC(=O)[C@@H]4C[C@@H]4F)nc3cn2)c2cn[nH]c12` [Example 62] are under 200 nM and 200 to 1000 nM.
Regarding `CC(C)c1c(F)c(Cl)c(-c2cn3cc(NC(=O)[C@@H]4C[C@@H]4F)nc3cn2)c2cn[nH]c12` [Example 64, (1S,2S)—N-(6-(5-chloro-6-fluoro-7-isopropyl-1H-indazol-4-yl)imidazo[1,2-a]pyrazin-2-yl)-2-fluorocyclopropane-1-carboxamide], the EC50 is under 200 nM under setting [1] and under 200 nM under setting [2].
